According to patent publication US20250090699A1, “FAP TARGETING CYCLIC PEPTIDES AND CONJUGATES THEREOF” (Novartis AG, priority 2023, published 2025):
Where a name gives a salt, the structure may show the parent alone. Starred links: 1 amine or outer side, 2 acyl side, 3 side chain; linkers in the order of their positions; H or OH if unused. Non-standard residues stand in square brackets, D forms with d. Residues, ends and D or L forms follow the SMILES beside them. *: point of attachment. F(4amPEG2NHDOTA-Lu) = lutetium complex of (S)-2,2',2''-(10-(1-(4-(2-amino-2-carboxyethyl)phenyl)-3,12-dioxo-5,8-dioxa-2,11-diazatridecan-13-yl)-1,4,7,10-tetraazacyclododecane-1,4,7-triyl)triacetic acid (Phe with 4-aminomethyl-PEG2-DOTA-Lu), O=C([O-])CN1CCN(CC(=O)[O-])CCN(CC(=O)NCCOCCOCC(=O)NCc2ccc(C[C@H](N[*:1])C(=O)[*:2])cc2)CCN(CC(=O)[O-])CC1.[Lu+3]; F(4amPEG2NH-NOTA-AlF) = aluminum [18F]fluoride complex of (S)-2,2'-(7-(1-(4-(2-amino-2-carboxyethyl)phenyl)-3,12-dioxo-5,8-dioxa-2,11-diazatridecan-13-yl)-1,4,7-triazonane-1,4-diyl)diacetic acid (Phe with 4-aminomethyl-PEG2-NOTA-Al18F), O=C([O-])CN1CCN(CC(=O)[O-])CCN(CC(=O)NCCOCCOCC(=O)NCc2ccc(C[C@H](N[*:1])C(=O)[*:2])cc2)CC1.[18F][Al+2]; F4(amGlyDOTALu) = lutetium complex of (S)-2,2',2''-(10-(2-((2-((4-(2-amino-2-carboxyethyl)benzyl)amino)-2-oxoethyl)amino)-2-oxoethyl)-1,4,7,10-tetraazacyclododecane-1,4,7-triyl)triacetic acid (Phe with 4-aminomethyl-Gly-DOTA-Lu), O=C([O-])CN1CCN(CC(=O)[O-])CCN(CC(=O)NCC(=O)NCc2ccc(C[C@H](N[*:1])C(=O)[*:2])cc2)CCN(CC(=O)[O-])CC1.[Lu+3]; K(COpipzaa) = N6-(4-(carboxymethyl)piperazine-1-carbonyl)-L-lysine, O=C(NCCCC[C@H](N[*:1])C(=O)[*:2])N1CCN(CC(=O)[*:3])CC1; COpipzaa = 4-(carboxymethyl)piperazine-1-carbonyl, O=C(O)CN1CCN(C(=O)*)CC1; hS(Pr) = O-propyl-L-homoserine, CCCOCC[C@H](N[*:1])C(=O)[*:2]; NMeCba = CN[C@@H](CC1CCC1)C(=O)O; NMeF = CN[C@@H](Cc1ccccc1)C(=O)O; Ahp(2) = CCCCC[C@H](N)C(=O)O; X3 = FC1(F)CCN(*)C1

Assays:
[1] = molecular target: T1, human FAP (Homo sapiens, UniProt Q12884); assay: Enzymatic FAP competition assay (Z-Gly-Pro-AMC fluorescence), human FAP; assay type: biochemical; details: read-out: h. FAP, Enz., IC50
T1 construct: the biotinylated His, Avi tag, human FAP (26-760, FAP-H82Q6); His; Avi tag (biotinylated); purchased AcroBiosystems FAP-H82Q6
T1 sequence (Q12884 26-760): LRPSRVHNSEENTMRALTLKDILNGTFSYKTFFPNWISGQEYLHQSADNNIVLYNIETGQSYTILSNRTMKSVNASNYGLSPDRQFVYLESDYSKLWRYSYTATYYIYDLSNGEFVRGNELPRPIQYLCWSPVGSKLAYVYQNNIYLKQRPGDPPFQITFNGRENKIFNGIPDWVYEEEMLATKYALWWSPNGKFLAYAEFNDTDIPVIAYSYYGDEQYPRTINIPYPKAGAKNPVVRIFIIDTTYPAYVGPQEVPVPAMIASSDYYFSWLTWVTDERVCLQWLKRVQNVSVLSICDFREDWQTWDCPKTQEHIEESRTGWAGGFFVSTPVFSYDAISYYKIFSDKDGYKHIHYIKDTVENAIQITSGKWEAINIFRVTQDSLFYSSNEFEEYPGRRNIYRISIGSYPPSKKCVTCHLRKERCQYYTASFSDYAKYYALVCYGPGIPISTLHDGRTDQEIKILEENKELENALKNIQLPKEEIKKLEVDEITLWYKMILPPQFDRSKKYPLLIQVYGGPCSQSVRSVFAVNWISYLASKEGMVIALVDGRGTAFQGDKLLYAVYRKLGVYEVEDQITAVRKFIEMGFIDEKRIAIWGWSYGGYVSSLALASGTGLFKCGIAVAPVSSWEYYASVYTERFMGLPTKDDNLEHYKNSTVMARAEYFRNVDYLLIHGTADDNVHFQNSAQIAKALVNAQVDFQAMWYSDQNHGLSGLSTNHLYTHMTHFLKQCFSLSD
Summary of the method: (§1)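 Biotinylated His/Avi-tagged FAP ectodomain (human 26-760, mouse 26-761) at 0.01 nM, preincubated 24 h with peptides (14 concentrations, up to 1 μM) in pH 7.5 phosphate, 150 mM NaCl, 0.05% Tween20, 1% DMSO. Then 50 μM Z-Gly-Pro-AMC, 4 h at 22-24° C; AMC fluorescence (380/460 nm) gave IC50 from duplicate points.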

[2] = molecular target: T2, mouse FAP (Mus musculus, UniProt P97321); assay: Surface plasmon resonance (SPR) for peptide affinity, mouse FAP; assay type: binding
T2 construct: biotinylated His, Avi tag, mouse FAP (26-761, FAP-M82Q5); His; Avi tag (biotinylated); purchased AcroBiosystems FAP-M82Q5
T2 sequence (P97321 26-761): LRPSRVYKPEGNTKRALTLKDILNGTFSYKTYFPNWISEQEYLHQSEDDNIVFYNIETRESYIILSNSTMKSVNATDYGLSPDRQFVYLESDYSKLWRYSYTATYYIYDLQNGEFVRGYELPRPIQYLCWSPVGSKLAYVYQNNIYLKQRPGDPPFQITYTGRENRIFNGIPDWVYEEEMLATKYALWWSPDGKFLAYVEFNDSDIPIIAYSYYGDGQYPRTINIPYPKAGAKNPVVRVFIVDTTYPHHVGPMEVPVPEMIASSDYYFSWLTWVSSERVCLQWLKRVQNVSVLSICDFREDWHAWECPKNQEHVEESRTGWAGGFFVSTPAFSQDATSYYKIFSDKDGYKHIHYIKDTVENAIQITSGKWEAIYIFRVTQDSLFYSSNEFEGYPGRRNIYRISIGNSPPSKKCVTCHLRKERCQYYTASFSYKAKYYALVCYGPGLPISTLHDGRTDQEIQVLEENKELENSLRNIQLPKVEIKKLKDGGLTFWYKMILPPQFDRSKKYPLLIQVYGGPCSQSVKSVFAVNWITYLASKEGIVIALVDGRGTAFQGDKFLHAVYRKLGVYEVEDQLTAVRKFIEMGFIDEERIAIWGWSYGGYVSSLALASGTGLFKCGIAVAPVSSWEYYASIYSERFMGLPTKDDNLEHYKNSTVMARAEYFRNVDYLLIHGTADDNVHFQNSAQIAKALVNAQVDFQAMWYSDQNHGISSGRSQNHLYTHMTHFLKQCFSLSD
Summary of the method: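 Biotinylated His/Avi-tagged FAP ectodomains (human 26-760, mouse 26-761) captured or immobilized on Biacore sensor chips; peptides run at 25 °C in HBS-EP+ pH 7.6 with 2% DMSO, single-cycle kinetics, 8 concentrations. KD from 1:1 binding-model fit of sensorgrams.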

[3] = molecular target: T2, mouse FAP; assay: Enzymatic FAP competition assay (Z-Gly-Pro-AMC fluorescence), mouse FAP; assay type: biochemical; details: read-out: m. FAP, Enz., IC50
Summary of the method: as §1

Row | Molecule | IC50 [1] | Kd [2] | IC50 [3]
1 | CCCCC[C@@H]1NC(=O)[C@H](Cc2ccc(O)cc2)NC(=O)[C@H](CC2CCC2)N(C)C(=O)CNC(=O)CNC(=O)[C@H]2CCCN2C(=O)[C@H](CC(=O)O)NC(=O)[C@H](Cc2ccc(O)cc2)NC(=O)CNC(=O)[C@H](Cc2c[nH]c3ccccc23)NC1=O [Example A62, Gly-Gly-NMecBuA-Tyr-Ahp-Trp-Gly-Tyr-Asp-D-Pro] (cyclo([Ahp(2)]WGYD[dP]GG[NMeCba]Y)) | 0.063 nM | 0.32 nM | 0.31 nM
2 | CN1C(=O)CNC(=O)[C@H](CCCCN)NC(=O)[C@H]2CCCN2C(=O)[C@H](CC(=O)O)NC(=O)[C@H](Cc2ccc(O)cc2)NC(=O)CNC(=O)[C@H](Cc2c[nH]c3ccccc23)NC(=O)[C@H](CCC(=O)N2CCC(F)(F)C2)NC(=O)[C@H](Cc2ccc(O)cc2)NC(=O)[C@@H]1Cc1ccccc1 [Example A30, Lys-Gly-NMePhe-Tyr-Q(Pyrro(4F2))-Trp-Gly-Tyr-Asp-D-Pro, TFA salt] (cyclo(D[dP]KG[NMeF]YE(X3)WGY)) | 0.79 nM | 2.4 nM | 2.5 nM
3 | CCCCCC[C@@H]1NC(=O)[C@H](Cc2ccc(CNC(=O)COCCOCCNC(=O)CCC(C(=O)O)N3CCN(CC(=O)O)CCN(CC(=O)O)CC3)cc2)NC(=O)[C@H](Cc2ccccc2)N(C)C(=O)CNC(=O)CNC(=O)[C@H]2CCCN2C(=O)[C@H](CC(=O)O)NC(=O)[C@H](CCCCNC(=O)N2CCN(CC(=O)O)CC2)NC(=O)CNC(=O)[C@H](Cc2c[nH]c3ccccc23)NC1=O (stereo partly drawn) [Example B38, Gly-Gly-NMePhe-F(4amPEG2NHNODAGA)-Aoc-Trp-Gly-K(COpipzaa)-Asp-D-Pro] | 0.031 nM | < 0.076 nM | 0.073 nM
4 | CCCCC[C@@H]1NC(=O)[C@H](Cc2ccc(O)cc2)NC(=O)[C@H](Cc2ccccc2)N(C)C(=O)CNC(=O)[C@H](CO)NC(=O)[C@H]2CCCN2C(=O)[C@H](CC(=O)O)NC(=O)[C@H](Cc2ccc(O)cc2)NC(=O)CNC(=O)[C@H](Cc2c[nH]c3ccccc23)NC1=O [Example A19, Ser-Gly-NMePhe-Tyr-Ahp-Trp-Gly-Tyr-Asp-D-Pro] (cyclo([Ahp(2)]WGYD[dP]SG[NMeF]Y)) | 0.145 nM | 0.26 nM | 0.66 nM

More lines, now with the values ahead:

Row | IC50 [1] | Kd [2] | IC50 [3] | Molecule
5 | 0.013 nM | < 0.035 nM | 0.035 nM | Gly-Gly-NMePhe-F(4amPEG2NH-NOTA-AlF)-hS(Pr)-Trp-Gly-K(COpipzaa)-Asp-D-Pro (cyclo(GG[NMeF][F(4amPEG2NH-NOTA-AlF)][hS(Pr)]WGK(COpipzaa)D[dP]); also: Al[18F]F complex) [Example C53]
6 | 0.019 nM | < 0.084 nM | 0.049 nM | Glu-Gly-NMePhe-F(4amPEG2NHDOTA-Lu)-hS(Pr)-Trp-Gly-K(COpipzaa)-Asp-D-Pro (cyclo(EG[NMeF][F(4amPEG2NHDOTA-Lu)][hS(Pr)]WG[K(COpipzaa)]D[dP]); also: Lu complex of DOTA) [Example C5]
7 | 0.01 nM | 0.032 nM | 0.024 nM | Gly-Gly-NMePhe-F4(amGlyDOTALu)-Ahp-Trp-Gly-Tyr-Asp-D-Pro (cyclo(GG[NMeF][F4(amGlyDOTALu)][Ahp(2)]WGYD[dP]); also: Lu complex) [Example C9]
